Here are results for one compound from ChEMBL document CHEMBL2073904, “Effect of levothyroxine administration on intestinal P-glycoprotein expression: consequences for drug disposition” (Clin Pharmacol Ther, 2002).

The target of series [1] is T1, ATP-dependent translocase ABCB1 (Homo sapiens, UniProt P08183). Put plainly: TP_TRANSPORTER: RT-PCR in vivo, duodenal. The class given is functional, organism-based, Duodenum.
Series [2] deals with T1, ATP-dependent translocase ABCB1. Put plainly: TP_TRANSPORTER: immunohistochemistry in vivo, duodenum. The class given is functional, organism-based.

T1 sequence (P08183 whole entry): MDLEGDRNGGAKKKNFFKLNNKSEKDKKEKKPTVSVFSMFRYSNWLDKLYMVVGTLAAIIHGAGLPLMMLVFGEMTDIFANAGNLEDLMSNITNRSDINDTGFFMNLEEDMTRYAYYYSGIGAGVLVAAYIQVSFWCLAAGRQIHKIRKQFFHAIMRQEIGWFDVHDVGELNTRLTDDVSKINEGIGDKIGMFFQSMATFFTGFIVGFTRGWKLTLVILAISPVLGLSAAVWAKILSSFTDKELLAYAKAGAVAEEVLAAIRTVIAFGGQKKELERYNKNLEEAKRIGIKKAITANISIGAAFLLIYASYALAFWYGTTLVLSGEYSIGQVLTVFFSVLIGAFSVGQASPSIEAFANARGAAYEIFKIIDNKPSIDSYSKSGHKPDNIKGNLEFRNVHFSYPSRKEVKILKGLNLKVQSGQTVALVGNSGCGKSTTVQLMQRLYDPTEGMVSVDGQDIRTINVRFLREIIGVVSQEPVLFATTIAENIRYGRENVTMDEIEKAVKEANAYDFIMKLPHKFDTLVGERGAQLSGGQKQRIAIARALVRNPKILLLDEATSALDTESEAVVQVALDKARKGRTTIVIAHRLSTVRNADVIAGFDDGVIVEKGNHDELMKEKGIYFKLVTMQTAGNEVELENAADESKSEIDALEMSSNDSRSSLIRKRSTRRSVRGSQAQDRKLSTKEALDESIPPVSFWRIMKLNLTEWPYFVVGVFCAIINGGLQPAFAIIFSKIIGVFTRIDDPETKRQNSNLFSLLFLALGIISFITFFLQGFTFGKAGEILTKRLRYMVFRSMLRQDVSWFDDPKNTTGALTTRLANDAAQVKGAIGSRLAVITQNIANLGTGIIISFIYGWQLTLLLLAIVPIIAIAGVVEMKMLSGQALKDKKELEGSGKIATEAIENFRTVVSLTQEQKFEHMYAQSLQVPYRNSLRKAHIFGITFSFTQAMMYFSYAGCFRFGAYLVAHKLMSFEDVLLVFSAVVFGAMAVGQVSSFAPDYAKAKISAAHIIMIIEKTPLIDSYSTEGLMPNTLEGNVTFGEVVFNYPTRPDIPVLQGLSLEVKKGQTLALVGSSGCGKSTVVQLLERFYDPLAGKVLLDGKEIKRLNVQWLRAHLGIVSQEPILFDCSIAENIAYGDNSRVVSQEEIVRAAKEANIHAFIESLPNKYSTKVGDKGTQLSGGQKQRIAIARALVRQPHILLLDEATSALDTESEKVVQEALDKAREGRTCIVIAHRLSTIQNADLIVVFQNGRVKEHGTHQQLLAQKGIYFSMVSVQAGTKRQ

Regarding `N[C@@H](Cc1cc(I)c(Oc2cc(I)c(O)c(I)c2)c(I)c1)C(=O)O` [LEVOTHYROXINE], the Activity result in series [1] and in series [2] was “inducer [+]” each time.
